Source: PMC7604827 (Bioorganic & medicinal chemistry, 2011)
Counter-ions that a name gives are not always drawn. Like-named read-outs stand apart in the source and are kept apart here.

Experiments:
[1] = tested on: cell–cell fusion reaction between target cells expressing CD4/CCR5 and effector cells expressing the envelope protein of HIV-1; type: cell-based
[2] = rat, 10 mg/kg, po
[3] = pH 6.8; cited from earlier work
[4] = biological target: T1, human CCR5 (Homo sapiens, UniProt P51681); details: (3R,1′R)-configuration versus other stereoisomers; cited from earlier work
[5] = AMES test
[6] = tested on: broad panel of receptors and transporters including the other chemokines; assay: Broad panel of receptors and transporters including the other chemokines
[7] = biological target: CCR5/hRANTES (Cavia porcellus, UniProt A0A286Y1F6); details: read-out: CCR5/hRANTES Ca assay IC50; Guinea pig
[8] = up to the dosage of 100 mg/kg, po
[9] = in vivo; details: rat, po, 10 mg/kg
[10] = biological target: T1, human CCR5; type: cell-based
[11] = tested on: HIV-1Ba-L (R5); details: inhibition of HIV p24 antigen expression in PBMC, mean ± SD, triplicate
[12] = tested on: HIV-1MM (R5MDR); details: read-out: Anti-HIV-1 activity HIV-1MM (R5MDR) IC50 ± SD; inhibition of HIV p24 antigen expression in PBMC, mean ± SD, triplicate

T1 sequence (P51681 whole entry): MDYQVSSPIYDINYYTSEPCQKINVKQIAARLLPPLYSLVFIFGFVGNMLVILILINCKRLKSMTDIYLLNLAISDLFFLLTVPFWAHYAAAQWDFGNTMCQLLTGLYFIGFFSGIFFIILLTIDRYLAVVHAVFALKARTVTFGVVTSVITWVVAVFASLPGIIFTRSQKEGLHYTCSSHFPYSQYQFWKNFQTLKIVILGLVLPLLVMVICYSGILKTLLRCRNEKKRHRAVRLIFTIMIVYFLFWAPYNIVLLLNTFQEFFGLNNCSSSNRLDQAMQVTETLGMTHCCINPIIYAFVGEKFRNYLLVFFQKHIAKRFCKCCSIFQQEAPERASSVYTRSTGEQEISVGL
Chain of CCR5/hRANTES (A0A286Y1F6 1-353): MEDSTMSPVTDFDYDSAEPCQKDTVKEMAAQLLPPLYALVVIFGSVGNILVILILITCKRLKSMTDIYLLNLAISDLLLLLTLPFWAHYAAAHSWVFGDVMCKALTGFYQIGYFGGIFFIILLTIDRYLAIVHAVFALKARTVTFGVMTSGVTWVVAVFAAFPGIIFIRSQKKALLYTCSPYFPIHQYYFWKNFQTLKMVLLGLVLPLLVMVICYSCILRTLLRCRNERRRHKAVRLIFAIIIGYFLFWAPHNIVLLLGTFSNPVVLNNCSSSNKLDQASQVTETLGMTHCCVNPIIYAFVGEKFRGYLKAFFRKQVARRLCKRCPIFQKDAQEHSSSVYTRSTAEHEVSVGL

For CCCCN1C(=O)[C@@H](C(O)C2CCC(O)CC2)NC(=O)C12CCN(Cc1ccc(Oc3ccc(C(=O)O)cc3)cc1)CC2 (stereo in doubt) [Compound 20b, 4-[4-({(3R)-1-Butyl-3-[(R)-hydroxy(4-hydroxycyclohexyl)methyl]-2,5-dioxo-1,4,9-triazaspiro[5.5]undec-9-yl}methyl)phenoxy]benzoic acid hydrochloride], which IC50 ([1]; read-out: Fusion assay IC50) is on record?
Its IC50 is 129 nM.

For CCCCN1C(=O)C(C(C)C)NC(=O)C12CCN(Cc1ccc(Oc3ccccc3)cc1)CC2.Cl (stereo not drawn) [Compound 1], which BA [2] is on record?
Its BA is 1.3%.

And the aqueous solubility [3]?
Its aqueous solubility is “less than 0.2 μg/ml”.

For CCCCN1C(=O)C(CC2CCCCC2)NC(=O)C12CCN(Cc1ccc(Oc3ccc(C(=O)NC)cc3)cc1)CC2.Cl (stereo not drawn) [Compound 2], which BA [2] is on record?
Its BA is 1.9%.

With CCCCN1C(=O)[C@@H]([C@H](O)C(C)C)NC(=O)C12CCN(Cc1ccc(Oc3ccccc3)cc1)CC2.Cl [Compound 3] as the compound, how does the “fold more potency than the other stereoisomers in the Ca assay” value [4] read?
The value was 4.5–12 fold.

For CCCCN1C(=O)[C@H](CC2CCCCC2)NC(=O)C12CCN(Cc1ccc(Oc3ccc(C(=O)O)cc3)cc1)CC2.Cl [Compound 5], which BA [2] is on record?
The BA was 34%.

Which results are given for CCCCN1C(=O)[C@@H]([C@H](O)C2CCCCC2)NC(=O)C12CCN(Cc1ccc(Oc3ccc(C(=O)O)cc3)cc1)CC2.Cl [Compound 6a, 4-[4-({(3R)-1-Butyl-3-[(R)-cyclohexyl(hydroxy)methyl]-2,5-dioxo-1,4,9-triazaspiro[5.5]undec-9-yl}methyl)phenoxy]benzoic acid hydrochloride]?
AMES test result [5]: did not show any significant safety problem; activity against a broad panel of receptors and transporters [6]: no significant activity; BA [2]: 23%; IC50 [7]: > 30000 nM; 14-day rat safety study result [8]: did not show any significant safety problem

With CCCCN1C(=O)[C@@H]([C@H](O)C2CCCCC2)NC(=O)C12CCN(Cc1ccc(Oc3ccc(O)cc3)cc1)CC2 [Compound 8, (3R)-1-Butyl-3-[(R)-cyclohexyl(hydroxy)methyl]-9-[4-(4-hydroxyphenoxy)benzyl]-1,4,9-triazaspiro[5.5]undecane-2,5-dione hydrochloride] as the compound, how does the IC50 ([1]; read-out: Fusion assay IC50) read?
The IC50 was 2.8 nM.

Which results are given for CCCCN1C(=O)[C@@H]([C@H](O)C2CCCCC2)NC(=O)C12CCN(Cc1ccc(Oc3ccc(C(=O)NC)cc3)cc1)CC2.Cl [Compound 10, 4-[4-({(3R)-1-Butyl-3-[(R)-cyclohexyl(hydroxy)methyl]-2,5-dioxo-1,4,9-triazaspiro[5.5]undec-9-yl}methyl)phenoxy]-N-methylbenzamide hydrochloride]?
BA [2]: 10%; AUC [9]: 1300 ng·h/mL; Cmax [9]: 333 ng/mL

Which BA [2] does the source give for CCCCN1C(=O)[C@@H]([C@H](O)C2CCCCC2)NC(=O)C12CCN(Cc1ccc(Oc3ccc(NS(C)(=O)=O)cc3)cc1)CC2.Cl [Compound 13, N-{4-[4-({(3R)-1-Butyl-3-[(R)-cyclohexyl (hydroxy)methyl]-2,5-dioxo-1,4,9-triazaspiro[5.5]undec-9-yl}methyl)phenoxy]phenyl}methanesulfonamide hydrochloride] here?
The BA was 5%.

And the AUC [9]?
Its AUC is 242 ng·h/mL.

What about the Cmax [9] of the same compound?
Its Cmax is 50 ng/mL.

What does the source list for CCCCN1C(=O)[C@@H]([C@H](O)C(C)C)NC(=O)C12CCN(Cc1ccc(Oc3ccc(C(=O)O)cc3)cc1)CC2.Cl [Compound 14, 4-[4-({(3R)-1-Butyl-3-[(1R)-1-hydroxy-2-methylpropyl]-2,5-dioxo-1,4,9-triazaspiro[5.5]undec-9-yl}methyl)phenoxy]benzoic acid hydrochloride]?
BA [2]: 5.9%; AUC [9]: 150 ng·h/mL

Which IC50 ([1]; read-out: Fusion assay IC50) does the source give for CCCCN1C(=O)[C@@H]([C@H](O)C2CCOCC2)NC(=O)C12CCN(Cc1ccc(Oc3ccc(C(=O)O)cc3)cc1)CC2 [Compound 19, 4-[4-({(3R)-1-Butyl-3-[(R)-hydroxy(tetrahydro-2H-pyran-4-yl)methyl]-2,5-dioxo-1,4,9-triazaspiro[5.5]undec-9-yl}methyl)phenoxy]benzoic acid hydrochloride] here?
The IC50 was 302 nM.

For CCCCN1C(=O)[C@@H]([C@H](O)C2CCC(O)CC2)NC(=O)C12CCN(Cc1ccc(Oc3ccc(C(=O)O)cc3)cc1)CC2 (stereo partly drawn) [Compound 20a, 4-[4-({(3R)-1-Butyl-3-[(R)-hydroxy(4-hydroxycyclohexyl)methyl]-2,5-dioxo-1,4,9-triazaspiro[5.5]undec-9-yl}methyl)phenoxy]benzoic acid hydrochloride], which IC50 ([1]; read-out: Fusion assay IC50) is on record?
Its IC50 is 537 nM.

Which IC50 ([1]; read-out: Fusion assay) does the source give for CNC(=O)c1ccc(Oc2ccc(CN3CCC4(CC3)C(=O)N[C@H]([C@H](O)C3CCCCC3)C(=O)N4C)cc2)cc1 [Compound 22, 4-[4-({(3R)-3-[(R)-Cyclohexyl(hydroxy)methyl]-1-methyl-2,5-dioxo-1,4,9-triazaspiro[5.5]undec-9-yl}methyl)phenoxy]-N-methylbenzamide hydrochloride] here?
Its IC50 is 1860 nM.

For CCCN1C(=O)[C@@H]([C@H](O)C2CCCCC2)NC(=O)C12CCN(Cc1ccc(Oc3ccc(C(=O)O)cc3)cc1)CC2 [Compound 25, 4-[4-({(3R)-3-[(R)-Cyclohexyl(hydroxy)methyl]-2,5-dioxo-1-propyl-1,4,9-triazaspiro[5.5]undec-9-yl}methyl)phenoxy]benzoic acid hydrochloride], which IC50 ([1]; read-out: Fusion assay) is on record?
Its IC50 is 112 nM.

Which results are given for CCCN1C(=O)[C@@H]([C@H](O)C2CCCCC2)NC(=O)C12CCN(Cc1ccc(Oc3ccc(C(=O)NC)cc3)cc1)CC2.Cl [Compound 26, 4-[4-({(3R)-3-[(R)-Cyclohexyl(hydroxy)methyl]-2,5-dioxo-1-propyl-1,4,9-triazaspiro[5.5]undec-9-yl}methyl)phenoxy]-N-methylbenzamide hydrochloride]?
BA [2]: 11.2%; AUC [9]: 513 ng·h/mL; Cmax [9]: 133 ng/mL

For CNC(=O)c1ccc(Oc2ccc(CN3CCC4(CC3)C(=O)N[C@H]([C@H](O)C3CCCCC3)C(=O)N4CCC(C)O)cc2)cc1 (stereo partly drawn) [Compound 30, 4-(4-{[(3R)-3-[(R)-Cyclohexyl(hydroxy)methyl]-1-(3-hydroxybutyl)-2,5-dioxo-1,4,9-triazaspiro[5.5]undec-9-yl]methyl}phenoxy)-N-methylbenzamide hydrochloride], which IC50 ([1]; read-out: Fusion assay) is on record?
Its IC50 is ~10000 nM.

Which “fold less potent antagonist activity relative to 10” value [10] does the source give for CNC(=O)c1ccc(Oc2ccc(CN3CCC4(CC3)C(=O)N[C@H]([C@H](O)C3CCCCC3)C(=O)N4CCN)cc2)cc1.Cl.Cl [Compound 32, 4-[4-({(3R)-1-(2-Aminoethyl)-3-[(R)-cyclohexyl(hydroxy)methyl]-2,5-dioxo-1,4,9-triazaspiro[5.5]undec-9-yl}methyl)phenoxy]-N-methylbenzamide dihydrochloride] here?
The value was > 10 fold.

Which “fold less potent antagonist activity relative to 10” value [10] does the source give for CNC(=O)c1ccc(Oc2ccc(CN3CCC4(CC3)C(=O)N[C@H]([C@H](O)C3CCCCC3)C(=O)N4CCN(C)C)cc2)cc1.Cl.Cl [Compound 33, 4-[4-({(3R)-3-[(R)-Cyclohexyl(hydroxy)methyl]-1-[2-(dimethylamino)ethyl]-2,5-dioxo-1,4,9-triazaspiro[5.5]undec-9-yl}methyl)phenoxy]-N-methylbenzamide dihydrochloride] here?
Its value is > 10 fold.

For SCH-351125, which IC50 ([11]; read-out: Anti-HIV-1 activity HIV-1Ba-L (R5) IC50 ± SD) is on record?
The IC50 was 4 ± 2 nM.

What about the IC90 ([11]; read-out: Anti-HIV-1 activity HIV-1Ba-L (R5) IC90 ± SD) of the same compound?
Its IC90 is 79 ± 52 nM.

And the IC50 [12]?
The IC50 was 3 ± 0.5 nM.
